# Values quoted from earlier work, collected in patent publication US9974804B1, “Strontium-based composition, product, and method of using the same to control progression of osteoarthritis osteoporosis and tooth decay” (priority 2017, dated 2018).
# Key:
# [1] = three-year daily use, compared to the control group
# [2] = compared to placebo group
# [3] = osteoporosis; daily doses of 6.4 grams for months to years
# [4] = supplemented in the human diet
compound,measurement,setting,value
[Sr+2] [strontium],time after which fifty percent of bone strontium disappears,after strontium supplementation is discontinued,10 weeks
same,daily renal clearance relative to that of calcium,renal tubule excretion,about three
N#Cc1c(N(CC(=O)[O-])CC(=O)[O-])sc(C(=O)[O-])c1CC(=O)[O-].[Sr+2].[Sr+2] [strontium ranelate],reduction in hip fracture,[1],36%
same,reduction in nonvertebral fracture,[1],19%
same,reduction in vertebral fracture,[1],~49%
same,increase in osteoblast activity parameters,[2],~10%
same,trabecular and cortical bone thickness,[2],14-18%
CC(O)C(=O)[O-].CC(O)C(=O)[O-].[Sr+2] (stereo not drawn) [strontium lactate],marked subjective improvement,[3],84%
O=C([O-])[O-].[Sr+2] [strontium carbonate],tolerability / toxicity,[4],well tolerated without reported toxicity
